One assay has as its system WA-C3CD5+ cells (CLL). The assay is described as follows: Cell viability assay (CellTiter-Glo), WA-C3CD5+. The class given is cell-based. The following applies: 72 h, n = 3.
Another assay addresses T1, ERBB2 (Homo sapiens, UniProt P04626).
T1 construct: host or cells: HEK296T (so in the source)
The assay is described as follows: NanoBRET in-cell target engagement, ERBB2. The class given is binding. Conditions: HEK296T cells, 1 h incubation, average of duplicates. As for the experimental part: (§1) In-cell target engagement was performed at Reaction Biology Corporation, using NanoBRET technology. Very briefly, HEK296T cells were transfected and treated in duplicate with JS25 for 1 h of incubation. The compound was diluted 10 times with 3-fold dilution, starting at 1 μM. Curve fits were performed only when the % NanoBret signal at the highest concentration of compounds was less than 55%. The IC50 values were determined using GraphPad Prism 8 ([…]).
Background: BRET reads energy transfer from a luciferase to a nearby fluorophore.

The target in the next assay is T2, TEC (Homo sapiens, UniProt P42680).
T2 construct: host or cells: HEK296T (so in the source)
T2 sequence (P42680 1-631): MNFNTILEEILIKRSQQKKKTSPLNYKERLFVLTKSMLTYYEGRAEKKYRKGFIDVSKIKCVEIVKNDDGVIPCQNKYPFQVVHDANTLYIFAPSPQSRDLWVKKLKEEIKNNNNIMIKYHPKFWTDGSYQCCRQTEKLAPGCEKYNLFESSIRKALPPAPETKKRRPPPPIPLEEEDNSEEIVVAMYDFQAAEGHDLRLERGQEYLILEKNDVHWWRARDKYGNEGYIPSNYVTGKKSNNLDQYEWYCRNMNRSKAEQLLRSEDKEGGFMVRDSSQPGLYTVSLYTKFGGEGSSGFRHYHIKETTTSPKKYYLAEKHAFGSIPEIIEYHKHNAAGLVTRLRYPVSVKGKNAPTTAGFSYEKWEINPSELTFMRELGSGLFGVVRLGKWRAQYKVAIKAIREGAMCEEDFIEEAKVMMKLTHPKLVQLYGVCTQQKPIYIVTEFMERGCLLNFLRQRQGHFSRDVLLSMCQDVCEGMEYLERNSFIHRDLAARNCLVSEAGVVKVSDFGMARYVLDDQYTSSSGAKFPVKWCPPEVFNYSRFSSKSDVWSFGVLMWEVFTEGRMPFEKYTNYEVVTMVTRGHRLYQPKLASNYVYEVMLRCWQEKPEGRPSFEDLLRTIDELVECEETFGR
As to the kind of experiment: NanoBRET in-cell target engagement, TEC. The class given is binding. As for the experimental part: as §1

Bounds are passed on as bounds.

T1 sequence (P04626 23-1255): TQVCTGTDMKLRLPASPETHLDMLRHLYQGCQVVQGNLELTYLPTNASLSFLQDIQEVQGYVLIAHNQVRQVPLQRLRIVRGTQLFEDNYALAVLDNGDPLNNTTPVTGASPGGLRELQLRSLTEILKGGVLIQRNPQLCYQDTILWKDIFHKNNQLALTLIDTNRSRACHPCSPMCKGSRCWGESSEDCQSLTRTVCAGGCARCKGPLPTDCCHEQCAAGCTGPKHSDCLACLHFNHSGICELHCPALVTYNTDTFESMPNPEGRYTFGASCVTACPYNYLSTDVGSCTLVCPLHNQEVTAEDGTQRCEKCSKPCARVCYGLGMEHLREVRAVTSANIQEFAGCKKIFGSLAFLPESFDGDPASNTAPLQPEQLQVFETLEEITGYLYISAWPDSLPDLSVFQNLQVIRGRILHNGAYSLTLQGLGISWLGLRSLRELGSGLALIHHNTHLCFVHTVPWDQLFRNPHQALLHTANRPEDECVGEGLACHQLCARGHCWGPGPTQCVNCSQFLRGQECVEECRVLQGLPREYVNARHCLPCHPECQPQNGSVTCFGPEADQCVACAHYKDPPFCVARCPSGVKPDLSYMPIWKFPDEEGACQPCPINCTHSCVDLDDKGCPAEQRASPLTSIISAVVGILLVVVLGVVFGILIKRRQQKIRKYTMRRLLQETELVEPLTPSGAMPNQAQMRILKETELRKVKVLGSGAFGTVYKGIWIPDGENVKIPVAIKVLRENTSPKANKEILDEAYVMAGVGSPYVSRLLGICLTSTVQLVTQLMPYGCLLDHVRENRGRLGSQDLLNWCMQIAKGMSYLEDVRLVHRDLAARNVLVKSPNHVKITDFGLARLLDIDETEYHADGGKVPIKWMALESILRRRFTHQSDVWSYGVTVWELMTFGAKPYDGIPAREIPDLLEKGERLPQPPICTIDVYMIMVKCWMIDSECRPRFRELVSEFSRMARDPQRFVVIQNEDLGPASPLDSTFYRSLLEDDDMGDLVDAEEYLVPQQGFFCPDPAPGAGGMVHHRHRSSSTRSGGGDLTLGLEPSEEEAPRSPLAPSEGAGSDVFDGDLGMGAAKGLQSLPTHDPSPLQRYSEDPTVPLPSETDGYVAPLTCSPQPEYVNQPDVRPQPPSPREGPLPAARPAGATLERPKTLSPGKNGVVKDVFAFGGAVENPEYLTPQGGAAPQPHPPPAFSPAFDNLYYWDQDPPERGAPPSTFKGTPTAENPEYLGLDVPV

Take `C=CC(=O)Nc1cc(C)cc(-n2c(=O)ccc3cnc4ccc(-c5ccc(NS(C)(=O)=O)cc5)cc4c32)c1` [JS25]: the IC50 (in general, the concentration that inhibits the measured activity by half) is 3.5 µM in the assay on WA-C3CD5+ cells (CLL); more than 3 µM on ERBB2; 0.22 µM on TEC (HEK296T cells, 1 h incubation, average of duplicates). Besides, at TEC, the “selectivity for BTK relative to TEC” value is reported as approximately 8 fold. Further, the “selectivity (kinase/BTK), TEC” value at TEC (IC50 kinase/IC50 BTK) is 7.7.
